{
  "source": "patent US9682013B2",
  "about": "“Pharmaceutical compositions comprising human antibodies to PCSK9” (SANOFI BIOTECHNOLOGY, priority 2011, dated 2017)",
  "key": {"[1]": {"tested_on": "patients with an elevated LDL-C (≧100 mg/dL or 2.59 mmol/L) treated with a stable dose of atorvastatin 10 mg", "assay": "Study 2: randomized, double-blind, placebo-controlled 8-week study of 316P 150 mg E2W with atorvastatin 10 mg or 80 mg", "assay_type": "in vivo, human", "protocol": "This was a randomized, double-blind, 3-parallel-groups, placebo-controlled, fixed dose/dose regimen, multicenter, 8-week study in subjects with primary hypercholesterolemia, aged 18-75 years. One aim of this study was to assess the efficacy and safety of 316P in patients with an elevated LDL-C (≧100 mg/dL or 2.59 mmol/L) treated with a stable dose of atorvastatin 10 mg.\nDuring the screening period, patients had to be stabilized to atorvastatin 10 mg for at least 6 weeks, if they are not already. Then, after 1 additional screening week, patients were centrally randomized via IVRS/IWRS in a 1:1:1 ratio to one of the 3 treatment groups (placebo for 316P+atorvastatin 80 mg, 316P 150 mg E2W+atorvastatin 80 mg, 316P 150 mg E2W+atorvastatin 10 mg) and treated in a double-blind manner for approximately 8 weeks. 316P was administered every 2 weeks on site trough subcutaneous injection and atorvastatin was administered orally once daily in the evening at home. The double-blind treatment period was then followed by an 8-week follow-up period.\nInclusion criteria: • Patients (patients receiving a lipid lowering treatment other than atorvastatin/or not at stable dose of atorvastatin 10 mg for at least 6 weeks prior to screening period, or drug naive patients) with primary hypercholesterolemia likely to have low-density lipoprotein cholesterol (LDL-C)≧100 mg/dL (≧2.59 mmol/L) at the end of the run-in period on atorvastatin therapy (Week-1). • OR • Patients with primary hypercholesterolemia treated with stable dose of atorvastatin 10 mg for at least 6 weeks prior to screening period and likely to have low-density lipoprotein cholesterol (LDL-C)≧100 mg/dL (≧2.59 mmol/L) at the screening visit (Week-1).\nDuration of Study Period Per Subject:\n• Arm 1: The first group of patients receives one subcutaneous injection of 1 mL of antibody 316P, administered in the abdomen every two weeks, with a dose regimen at 150 mg, for a double-blind treatment period of 8 weeks; • Atorvastatin is administered once per day at a stable dose of 10 mg as background therapy. • Atorvastatin is administered at a dose of 80 mg once during the double-blind treatment period of 8 weeks. • Arm 2: The second group of patients receives one subcutaneous injection of 1 mL of a placebo solution, administered in the abdomen every two weeks, with a dose regimen at 150 mg, for a double-blind treatment period of 8 weeks; • Atorvastatin is administered once per day at a stable dose of 10 mg as background therapy. • Atorvastatin is administered at a dose of 80 mg (2 over-encapsulated atorvastatin 40 mg tablets) once during the double-blind treatment period of 8 weeks. • Arm 3: The third group of patients receives one subcutaneous injection of 1 mL of antibody 316P, administered in the abdomen every two weeks, with a dose regimen at 150 mg, for a double-blind treatment period of 8 weeks; • Atorvastatin is administered once per day at a stable dose of 10 mg as background therapy. • Atorvastatin is administered at a dose of 10 mg (1 over-encapsulated atorvastatin 10 mg tablet+1 matching placebo tablet) once during the double-blind treatment period of 8 weeks. Primary and Key Secondary Endpoints Primary Endpoints\nThe primary efficacy variable is the percent change in calculated LDL-C from baseline to Week 8, which is defined as: 100×(calculated LDL-C value at Week 8-calculated LDL-C value at baseline)/calculated LDL-C value at baseline.\nIn case of unavailable calculated LDL-C value at Week 8 as defined above, then the last calculated LDL-C value measured during the efficacy period and before the Week 8 time window was used to impute the missing Week 8 calculated LDL-C value (Last Observation Carried Forward [LOCF] procedure). […]"}, "[2]": {"tested_on": "patients with Heterozygous Familial Hypercholesterolemia (HeFH) or other forms of primary hypercholesteremia (nonFH)", "assay": "Study 3: randomized, placebo-controlled, multiple ascending dose trial of 316P in HeFH and nonFH", "assay_type": "in vivo, human", "conditions": "for mean % reduction in LDL-C on day 57: on top of statins, combined FH and nonFH populations", "description": "This is a randomized, double-blind, placebo-controlled, multiple ascending dose, multicenter clinical trial in subjects with primary hypercholesterolemia.\nThe objective of this study was to determine whether a fully human monoclonal antibody to PCSK9 (316P) is effective and safe as either a primary or adjunctive agent to lower LDL-C in patients with Heterozygous Familial Hypercholesterolemia (HeFH) or other forms of primary hypercholesteremia (nonFH). 61 adults with either documented HeFH (n=21) or nonFH (n=30), on diet plus stable atorvastatin therapy (atorvaRx) or nonFH (n=10) on diet alone enrolled in this clinical trial. Subjects on stable atorvastatin therapy had LDL-C≧2.6 mmol/L and those on diet alone had LDL-C≧3.4 mmol/L. 316P at doses of 50, 100 and 150 mg was administered subcutaneously (sc) at 1, 29 and 43 days. The primary endpoint was the incidence and severity of treatment emergent adverse events (TEAE). The primary efficacy endpoint was percent and absolute change in serum LDL-C from baseline to each visit. Additional endpoints included apolipoprotein (apo) B, total cholesterol, HDL-C, VLDL-C, and the ratio of apoB to apoA1. 109 patients were screened, and 61 patients were randomized (14 placebo, 47 316P) with 100% completing 148+/−7 days of treatment and follow up. Compared to the nonFH cohort, the FH group was younger (mean 40 vs. 52 yrs), had more males (81% vs. 57%) and was on higher doses of atorvastatin (52% on 40 mg vs. 3%). Baseline LDL-C was 3.45, 2.88 and 4.46 mmol/L in the FH, nonFH atorvaRx and nonFH diet only groups, respectively."}, "[3]": {"conditions": "316P 150 mg with atorvastatin, 8 weeks, consistent with LDL-C decrease"}, "[4]": {"conditions": "316P 150 mg+atorvastatin 80 mg vs placebo+atorvastatin 80 mg, p<0.0001"}},
  "data": [
    {"substance": "316P: fully human anti-PCSK9 antibody comprising a HCVR as shown in SEQ ID NO: 90 and LCVR as shown in SEQ ID NO: 92 [Antibody 316P]", "values": [
      {"measurement": "safety signal", "setting": "[1]; 150 mg E2W, 8 weeks", "result": "No particular safety signal was noted"},
      {"measurement": "tolerability", "setting": "[1]; 150 mg E2W, 8 weeks of treatment, all treatment groups", "result": "well tolerated"},
      {"measurement": "HDL-C", "setting": "[1]; 316P 150 mg co-administered with atorvastatin 10 mg or 80 mg", "result": "trend of increase"},
      {"measurement": "HDL-C percent change from baseline, LS mean", "setting": "[1]; 316P 150 mg co-administered with atorvastatin 10 mg, 8 weeks", "result": "+2.6%"},
      {"measurement": "HDL-C percent change from baseline, LS mean", "setting": "[1]; 316P 150 mg co-administered with atorvastatin 80 mg, 8 weeks", "result": "+5.8%"},
      {"measurement": "Apo-B/ApoA-1 ratio", "setting": "[1]; [3]", "result": "Consistent results"},
      {"measurement": "ApoB", "setting": "[1]; [3]", "result": "Consistent results"},
      {"measurement": "Total-C", "setting": "[1]; [3]", "result": "Consistent results"},
      {"measurement": "non HDL-C", "setting": "[1]; [3]", "result": "Consistent results"},
      {"measurement": "median reduction from baseline in LDL-C at 8 weeks", "setting": "[1]; 316P 150 mg+atorvastatin 10 mg group", "result": "−70.4", "unit": "%"},
      {"measurement": "median reduction from baseline in LDL-C at 8 weeks", "setting": "[1]; 316P 150 mg+atorvastatin 80 mg group", "result": "−70.6", "unit": "%"},
      {"measurement": "LS mean difference in percent change from baseline in LDL-C at 8 weeks", "setting": "[1]; [4]", "result": "−55.8", "unit": "%"},
      {"measurement": "effect size estimate, rank-based analysis of covariance, percent change in LDL-C at 8 weeks", "setting": "[1]; [4]", "result": "−54.5", "unit": "%"},
      {"measurement": "troponin levels", "setting": "[1]; all treatment groups", "result": "no change"},
      {"measurement": "mean % reduction in LDL-C on day 57", "setting": "[2]; 50 mg sc at days 1, 29 and 43", "result": 35.6, "unit": "%"},
      {"measurement": "mean % reduction in LDL-C on day 57", "setting": "[2]; 100 mg sc at days 1, 29 and 43", "result": 50.2, "unit": "%"},
      {"measurement": "mean % reduction in LDL-C on day 57", "setting": "[2]; 150 mg sc at days 1, 29 and 43", "result": 57.5, "unit": "%"},
      {"measurement": "HDL-C", "setting": "[2]; 50, 100 and 150 mg sc", "result": "Favourable changes"},
      {"measurement": "apoA1", "setting": "[2]; 50, 100 and 150 mg sc", "result": "Favourable changes"},
      {"measurement": "liver function testing or other laboratory parameters", "setting": "[2]; 50, 100 and 150 mg sc", "result": "No drug-related adverse effects"},
      {"measurement": "serious adverse events", "setting": "[2]; 50, 100 and 150 mg sc", "result": "No serious adverse events"},
      {"measurement": "tolerability", "setting": "[2]; 50, 100 and 150 mg sc", "result": "generally well-tolerated"},
      {"measurement": "response between FH and nonFH or those on or not on statin therapy", "setting": "[2]; no statistical analysis performed", "result": "did not appear to be differences in response"}
    ]}
  ]
}
